One experiment relates to arachidonic acid. Put plainly: Arachidonic Acid Antagonism Assay (AAAA), LD50 of sodium arachidonate. In kind it is in vivo, Charles River male CF-1 mice. As to the method:
Since these metabolites contribute to the pathological problems associated with stroke, spinal trauma and head injury, compounds which antagonize arachidonic acid are useful in treating stroke, spinal trauma and head injury.
While not necessary to determine arachidonic acid antagonism, the above assay has been modified as follows: Charles River male CF-1 mice weighing 18-22 g are treated IV with the test compound dissolved in 1.0% Tween-80 and 0.1% hydrochloric acid in distilled water, 0.2 ml total volume. Fifteen minutes later sodium arachidonate (90% pure) in physiological (normal) saline is injected into the tail vein. The LD50 is measured using the Spearman-Karber method with a log dose interval of 0.05 (N=6). Compounds which elevate the LD50 outside of the 95% confidence interval of the control LD50 are considered to be "active".

The next experiment concerns MDA formation. As to the kind of experiment: Malonyldialdehyde (MDA) Formation Assay (rat brain synaptosomes). In kind it is biochemical. The conditions noted are these: 10 min at 37°, pH 7.0; active = 50% or more at 200 μM or less. As to the method: Since lipid peroxidation is involved in the pathophysiology of center nervous system trauma, compounds which inhibit MDA formation are useful in treating the conditions listed below.
While not necessary to determine MDA formation, the above assays have been modified as follows: rat brain synaptosomes are prepared as described in the Example about the conjugated diene assay, except that the final wash of the synaptosomes and final suspension are in physiological (normal) saline in which the pH has been adjusted to 7.0. The synaptosomes are incubated for 10 min at 37° in physiological (normal) saline pH 7.0 (total volume=100 ul) containing; 10 ul synaptosomal suspension, 10% DMSO plus or minus drug, 150 uM Fe^+++ and 50 uM Fe++. The incubation is started by the rapid addition of iron to the otherwise complete reaction. The iron solutions are prepared fresh as ferric chloride and ferrous ammonium sulfate in argon-purged water. Following the 10 min incubation, the reaction is stopped by the addition of 500 ul ice-cold 12% trichloroacetic acid prepared in 0.5N hydrochloric acid. Water (300 ul) is then added along with 100 ul of freshly prepared thiobarbituric acid (3.3% in 0.5N sodium hydroxide) and 10 ul of 5 mM desferrioxamine. The sample is then heated in a boiling water bath for 20 minutes. The samples are cooled and centrifuged for 15 minutes at 1500×g and the absorbence of the supernatant fraction is read at 532 nm. The % inhibition of MDA formation is calculated by dividing the absorbance of sample containing drug by the absorbence of samples incubated without drug. Reaction blanks are samples incubated in the absence of iron. A compound that inhibits MDA formation by 50% or more at a concentration of 200 μM or less is considered "active".

A further experiment has as its system angiogenesis. Put plainly: Chick embryo assay of Folkman (inhibition of angiogenesis / tumor growth). The experiment is classed as in vivo. The following applies: 50 μg/10 μl in the presence of heparin. As to the method:
According to this procedure compounds which are considered to be "active" (i.e. antiangiogenic) give an avascular zone of 4 mm or greater in some embryos when tested at 50 μg/10 μl in the presence of 50 μg/10μ of heparin.

Consider 7 compounds from patent US5506354A, “Imidazolylpiperazinyl steroids” (The Upjohn Company, priority 1992, dated 1996).

Structures can show the parent of a compound that is named as a salt.

For `C[C@]12CCC(=O)C=C1CC[C@@H]1C2=CC[C@@]2(C)[C@H]1CC[C@]2(O)C(=O)CN1CCN(c2cccc(N3CCCC3)n2)CC1` [Example 62, 17α-hydroxy-21-[4-[6-(1-pyrrolidinyl)-2-pyridinyl]-1-piperazinyl] pregna-4,9(11)-diene-3,20-dione (E)-2-butenedioate (1:1) salt], in the experiment with arachidonic acid (100 mg/kg, test compound IV), the “% of Control LD50 100 mg/kg” value was 138%. The “arachidonic acid antagonism (activity in words)” value with arachidonic acid (test compound IV 15 min before sodium arachidonate, LD50 outside 95% confidence interval of control) was “demonstrate arachidonic acid antagonism”. For the same compound, the “inhibition of MDA formation (activity in words)” value (shortened to “inhibition of MDA formation”) in the experiment on MDA formation is on record as “demonstrate such activity”.

For the compound `C[C@]12CCC(=O)C=C1CC[C@@H]1C2=CC[C@]2(C)[C@@H](CCN3CCN(c4cc(N5CCCC5)nc(N5CCCC5)n4)CC3)CC[C@@H]12.Cl` [Example 104, 21-[4-(2,6-Bis(1-pyrrolidinyl)-4-pyrimidinyl)-1-piperazinyl]pregna-4,9(11)-dien-3-one hydrochloride], in the experiment with angiogenesis, the “inhibition of angiogenesis (activity in words)” value was “demonstrate inhibition of angiogenesis”. Further, the “inhibition of MDA formation” value in the experiment with MDA formation is “demonstrate such activity”.

Regarding `C[C@@]12C(=CC(=O)C[C@@H]1C#N)CC[C@@H]1C2=CC[C@]2(C)[C@@H](CCN3CCN(c4cc(N5CCCC5)nc(N5CCCC5)n4)CC3)CC[C@@H]12.Cl.Cl.Cl.O` [Example 110, 21-[4-(2,6-Bis(1-pyrrolidinyl)4-pyrimidinyl)-1-piperazinyl]-1α-cyanopregna-4,9(11)-dien-3-one-trihydrochloride, hydrate], the “inhibition of MDA formation” value with MDA formation was “demonstrate such activity”.

As to `C[C@H]1C[C@H]2[C@@H]3C[C@H](F)C4=CC(=O)CC[C@]4(C)C3=CC[C@]2(C)[C@@]1(O)C(=O)CN1CCN(c2cc(N3CCCC3)nc(N3CCCC3)n2)CC1` [Example 118, 6αa-Fluoro-17α-hydroxy-16β-methyl-21-[4-[2,6-bis(1-pyrrolidinyl)-4-pyrimidinyl]-1-piperazinyl]-pregna-4,9(11)-diene-3,20-dione dihydrochloride], the “inhibition of MDA formation” value in the experiment with MDA formation is given as “demonstrate such activity”.

For `C[C@@H]1C[C@H]2[C@@H]3CCC4=CC(=O)C=C[C@]4(C)[C@H]3CC[C@]2(C)[C@H]1C(=O)CN1CCN(c2cc(N3CCCC3)nc(N3CCCC3)n2)CC1.Cl.Cl` [Example 121, 16α-Methyl-21-[4-[2,6-bis(1-pyrrolidinyl)-4-pyrimidinyl]-1-piperazinyl]-pregna-1,4-diene-3,20-dione dihydrochloride], the “inhibition of MDA formation” value with MDA formation is recorded as “demonstrate such activity”.

Regarding `COc1ccc2c(c1)CC[C@@H]1[C@@H]2CC[C@@]2(C)[C@H]1CC[C@]2(O)C(=O)CN1CCN(c2cc(N3CCCC3)nc(N3CCCC3)n2)CC1` [Example 125, 3,17α-Dihydroxy-21-[4-[2,6-bis(1-pyrrolidinyl)-4-pyrimidinyl]-1-piperazinyl]-19-norpregna-1,3,5(10)-trien-20-one 3-methyl ether (E)-2-butenedioate 1:1 salt], in the experiment on MDA formation, the “inhibition of MDA formation” value is “demonstrate such activity”.

Turning to `C[C@]12CC[C@@H]3c4ccc(O)cc4CC[C@H]3[C@@H]1CC[C@]2(O)C(=O)CN1CCN(c2cc(N3CCCC3)nc(N3CCCC3)n2)CC1` [Example 129, 3,17α-Dihydroxy-21-[4-[2,6-bis(1-pyrrolidinyl)-4-pyrimidinyl]-1-piperazinyl]-19-norpregna-1,3,5(10)-trien-20-one (E)-2-butenedioate 1:1 salt], the “inhibition of MDA formation” value in the experiment on MDA formation is listed as “demonstrate such activity”.
